Assay results: PubChem BioAssay AID192 (DTP/NCI, 2004)
“And” between values parts separate entries of the source, which are not always exact repeats. Identical values can stand only once. Toxic doses and inconclusive results are not listed.

Test system: BDF1 mice, B16 melanoma ip, median survival T/C
Assay: NCI In Vivo Anticancer Drug Screen. Data for tumor model B16 Melanoma (intraperitoneal) in B6D2F1 (BDF1) mice
Conditions: endpoint: median survival time, higher = longer survival
Method in brief: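 Transplantable tumor model; survival or tumor size measured; reported as T/C, treated over vehicle control.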

[1] = dose: 0.5 mg/kg/injection, schedule: Q01DX009 (ip), vehicle: saline
[2] = dose: 2.0 mg/kg/injection, schedule: Q01DX009 (ip), vehicle: saline
[3] = dose: 10.0 mg/kg/injection, schedule: Q01DX009 (ip), vehicle: saline with Tween-80
[4] = dose: 12.5 mg/kg/injection, schedule: Q01DX009 (ip), vehicle: saline
[5] = dose: 20.0 mg/kg/injection, schedule: Q01DX009 (ip), vehicle: saline with Tween-80
[6] = dose: 25.0 mg/kg/injection, schedule: Q01DX009 (ip), vehicle: saline
[7] = dose: 40.0 mg/kg/injection, schedule: Q01DX009 (ip), vehicle: saline with Tween-80
[8] = dose: 12.5 mg/kg/injection, schedule: Q01DX009 (ip), vehicle: saline with Tween-80
[9] = dose: 25.0 mg/kg/injection, schedule: Q01DX009 (ip), vehicle: saline with Tween-80
[10] = dose: 50.0 mg/kg/injection, schedule: Q01DX009 (ip), vehicle: saline with Tween-80

c1ccc2c(c1)C1=NCCN1c1ccccc1-2
T/C (dose: 12.0 mg/kg/injection, schedule: Q01DX009 (ip), vehicle: saline with Tween-80): 92 % of control
T/C (dose: 18.0 mg/kg/injection, schedule: Q01DX009 (ip), vehicle: saline with Tween-80): 94 % of control
T/C (dose: 26.0 mg/kg/injection, schedule: Q01DX009 (ip), vehicle: saline with Tween-80): 102 % of control

C1=CC2C=CC12 (stereo unspecified)
T/C (dose: 50.0 mg/kg/injection, schedule: Q04DX003 (ip), vehicle: saline with Tween-80): 91 % of control
T/C (dose: 100.0 mg/kg/injection, schedule: Q04DX003 (ip), vehicle: saline with Tween-80): 89 % of control

O=c1[nH]cc(F)c(=O)[nH]1
T/C [1]: 107 % of control
T/C (dose: 1.25 mg/kg/injection, schedule: Q03HX024 (ip), vehicle: saline): 110 % of control
T/C [2]: 118 % of control
T/C (dose: 2.5 mg/kg/injection, schedule: Q01DX017 (ip), vehicle: saline): 104 % of control
T/C (dose: 2.5 mg/kg/injection, schedule: Q03HX024 (ip), vehicle: saline): 112 % of control
T/C (dose: 3.12 mg/kg/injection, schedule: Q01DX009 (ip), vehicle: saline): 102 % of control
T/C (dose: 3.8 mg/kg/injection, schedule: Q04DX003 (ip), vehicle: saline): 116 % of control
T/C (dose: 5.0 mg/kg/injection, schedule: Q01DX001 (ip), vehicle: saline): 105 % of control
T/C (dose: 5.0 mg/kg/injection, schedule: Q01DX009 (ip), vehicle: saline with Tween-80): 104 % of control
T/C (dose: 5.0 mg/kg/injection, schedule: Q01DX017 (ip), vehicle: saline): 107 % of control
T/C (dose: 5.0 mg/kg/injection, schedule: Q05DX010 (ip), vehicle: saline): 115 % of control
T/C (dose: 6.25 mg/kg/injection, schedule: Q01DX009 (ip), vehicle: saline): 91 % of control
T/C (dose: 7.0 mg/kg/injection, schedule: Q01DX009 (ip), vehicle: saline): 117 % of control
T/C (dose: 7.5 mg/kg/injection, schedule: Q01DX009 (ip), vehicle: saline): 117 % of control
T/C (dose: 7.5 mg/kg/injection, schedule: Q04DX003 (ip), vehicle: saline): 116 % of control
T/C (dose: 7.8 mg/kg/injection, schedule: Q04DX003 (ip), vehicle: saline): 104 % of control
T/C (dose: 10.0 mg/kg/injection, schedule: Q01DX001 (ip), vehicle: saline): 107 % of control
T/C [3]: 104 % of control and 111 % of control and 114 % of control
T/C (dose: 10.0 mg/kg/injection, schedule: Q05DX010 (ip), vehicle: saline): 120 % of control
T/C (dose: 12.0 mg/kg/injection, schedule: Q01DX009 (ip), vehicle: saline): 115 % of control
T/C [4]: 123 % of control
T/C (dose: 12.5 mg/kg/injection, schedule: Q04DX005 (ip), vehicle: saline): 107 % of control
T/C (dose: 13.0 mg/kg/injection, schedule: Q04DX003 (ip), vehicle: saline): 108 % of control
T/C (dose: 15.0 mg/kg/injection, schedule: Q01DX009 (ip), vehicle: saline): 121 % of control and 122 % of control
T/C (dose: 15.0 mg/kg/injection, schedule: Q04DX003 (ip), vehicle: saline): 122 % of control
T/C (dose: 20.0 mg/kg/injection, schedule: Q01DX001 (ip), vehicle: saline): 115 % of control
T/C [5]: 116 % of control and 119 % of control
T/C (dose: 20.0 mg/kg/injection, schedule: Q01DX017 (ip), vehicle: saline): 161 % of control and 169 % of control
T/C (dose: 21.6 mg/kg/injection, schedule: Q04DX003 (ip), vehicle: saline): 103 % of control
T/C [6]: 119 % of control
T/C (dose: 25.0 mg/kg/injection, schedule: Q04DX003 (ip), vehicle: saline): 122 % of control
T/C (dose: 25.0 mg/kg/injection, schedule: Q04DX005 (ip), vehicle: saline): 117 % of control
T/C (dose: 30.0 mg/kg/injection, schedule: Q01DX009 (ip), vehicle: saline): 124 % of control
T/C (dose: 30.0 mg/kg/injection, schedule: Q04DX003 (ip), vehicle: saline): 117 % of control and 122 % of control
T/C (dose: 36.0 mg/kg/injection, schedule: Q04DX003 (ip), vehicle: saline): 104 % of control
T/C (dose: 40.0 mg/kg/injection, schedule: Q01DX001 (ip), vehicle: saline): 120 % of control
T/C [7]: 88 % of control and 97 % of control
T/C (dose: 50.0 mg/kg/injection, schedule: Q01DX001 (ip), vehicle: saline): 110 % of control
T/C (dose: 50.0 mg/kg/injection, schedule: Q04DX003 (ip), vehicle: saline): 120 % of control
T/C (dose: 50.0 mg/kg/injection, schedule: Q04DX005 (ip), vehicle: saline): 115 % of control
T/C (dose: 60.0 mg/kg/injection, schedule: Q01DX009 (ip), vehicle: saline): 39 % of control
T/C (dose: 60.0 mg/kg/injection, schedule: Q04DX003 (ip), vehicle: saline): 52 % of control and 119 % of control
T/C (dose: 90.0 mg/kg/injection, schedule: Q04DX003 (ip), vehicle: saline): 123 % of control
T/C (dose: 100.0 mg/kg/injection, schedule: Q01DX001 (ip), vehicle: saline): 110 % of control
T/C (dose: 120.0 mg/kg/injection, schedule: Q04DX003 (ip), vehicle: saline): 93 % of control
T/C (dose: 200.0 mg/kg/injection, schedule: Q01DX001 (ip), vehicle: saline): 110 % of control
T/C (dose: 240.0 mg/kg/injection, schedule: Q04DX003 (ip), vehicle: saline): 73 % of control
T/C (dose: 480.0 mg/kg/injection, schedule: Q04DX003 (ip), vehicle: saline): 47 % of control

OCCOCCOCCN1CCN(C(c2ccccc2)c2ccc(Cl)cc2)CC1 (stereo unspecified)
T/C [4]: 108 % of control
T/C [6]: 110 % of control
T/C (dose: 50.0 mg/kg/injection, schedule: Q01DX009 (ip), vehicle: saline): 86 % of control
T/C (dose: 100.0 mg/kg/injection, schedule: Q01DX009 (ip), vehicle: saline): 86 % of control

COC(=O)C(C#N)=C(C)C
T/C [3]: 100 % of control
T/C [5]: 98 % of control
T/C [7]: 94 % of control

CCN(CC)CCC(=O)c1ccccc1
T/C (dose: 3.12 mg/kg/injection, schedule: Q01DX009 (ip), vehicle: saline with Tween-80): 114 % of control
T/C (dose: 6.25 mg/kg/injection, schedule: Q01DX009 (ip), vehicle: saline with Tween-80): 108 % of control
T/C [8]: 117 % of control
T/C [9]: 107 % of control
T/C [10]: 108 % of control
T/C (dose: 100.0 mg/kg/injection, schedule: Q01DX009 (ip), vehicle: saline with Tween-80): 107 % of control

Cc1ccc2[nH]c(=O)oc(=O)c2c1
T/C (dose: 50.0 mg/kg/injection, schedule: Q04DX003 (ip), vehicle: Klucel (hydroxypropylcellulose) (HPC)): 98 % of control
T/C (dose: 100.0 mg/kg/injection, schedule: Q04DX003 (ip), vehicle: Klucel (hydroxypropylcellulose) (HPC)): 96 % of control
T/C (dose: 200.0 mg/kg/injection, schedule: Q04DX003 (ip), vehicle: Klucel (hydroxypropylcellulose) (HPC)): 93 % of control

CCc1ccccc1NC(=O)Nc1ccc(Cl)c(Cl)c1
T/C (dose: 75.0 mg/kg/injection, schedule: Q01DX009 (ip), vehicle: Klucel (hydroxypropylcellulose) (HPC)): 102 % of control
T/C (dose: 150.0 mg/kg/injection, schedule: Q01DX009 (ip), vehicle: Klucel (hydroxypropylcellulose) (HPC)): 97 % of control
T/C (dose: 300.0 mg/kg/injection, schedule: Q01DX009 (ip), vehicle: Klucel (hydroxypropylcellulose) (HPC)): 89 % of control

COc1cc(NC(N)=O)ccc1Nc1c2ccc(N)cc2nc2cc(N)ccc12
T/C [1]: 104 % of control
T/C (dose: 1.0 mg/kg/injection, schedule: Q01DX009 (ip), vehicle: saline): 102 % of control
T/C [2]: 108 % of control
T/C (dose: 4.0 mg/kg/injection, schedule: Q01DX009 (ip), vehicle: saline): 102 % of control
T/C (dose: 8.0 mg/kg/injection, schedule: Q01DX009 (ip), vehicle: saline): 102 % of control
T/C (dose: 16.0 mg/kg/injection, schedule: Q01DX009 (ip), vehicle: saline): 104 % of control

C=C1C(=O)O[C@H]2C1[C@H](OC(=O)/C(C)=C\COC(C)=O)C[C@]1(CO1)[C@@H]1[C@H](O)[C@H]3O[C@@]3(C)[C@@H]12 (stereo partly specified)
T/C (dose: 3.12 mg/kg/injection, schedule: Q01DX009 (ip), vehicle: other): 112 % of control
T/C (dose: 6.25 mg/kg/injection, schedule: Q01DX009 (ip), vehicle: other): 104 % of control
T/C (dose: 12.5 mg/kg/injection, schedule: Q01DX009 (ip), vehicle: other): 107 % of control
T/C (dose: 25.0 mg/kg/injection, schedule: Q01DX009 (ip), vehicle: other): 106 % of control
T/C (dose: 50.0 mg/kg/injection, schedule: Q01DX009 (ip), vehicle: other): 109 % of control

C=CCOCC(O)CN(CCC)CCC (stereo unspecified)
T/C [8]: 114 % of control
T/C [9]: 112 % of control
T/C [10]: 114 % of control
